The record followed here is ChEMBL document CHEMBL4715782, “Multitarget-directed oxoisoaporphine derivatives: Anti-acetylcholinesterase, anti-β-amyloid aggregation and enhanced autophagy activity against Alzheimer's disease” (Bioorg Med Chem, 2016).

SMILES strings stand for the structures. Active and inactive are the calls of the source. The calls are words filed in the database; no cut-off is given here.

Data set [1] has as its target Acetylcholinesterase (Electrophorus electricus, UniProt O42275). Nature of the data set: Inhibition of electric eel AChE using acetylthiocholine chloride as substrate incubated for 15 mins by Ellman's method. (In Ellman's method for cholinesterases, released thiocholine reacts with DTNB.)
Data set [2] relates to Drosophila melanogaster. Nature of the data set: In vivo inhibition of AChE in Elav-GAL4/UAS-Abeta42 hybrid Drosophila melanogaster assessed as reduction in intracephalic AChE levels by HPLC analysis. It is filed as functional. The conditions noted are these: dose 0.1-10 µM.
Data set [3] in a line: in vitro. Conditions: PAMPA. Background: The PAMPA barrier holds no transporters, so it reflects passive diffusion.
Description: Effective permeability of the compound in PBS/ethanol buffer (9:1) at 25 ug/ml after 10 hrs by UV plate reader based PAMPA-BBB assay
Data set [4] is filed under the species Homo sapiens. Briefly: Inhibition of self-induced amyloid beta (1 to 42) (unknown origin) aggregation at 10 uM after 48 hrs by thioflavin-T fluorescence method relative to control.
Data set [5] relates to Drosophila melanogaster. Briefly: In vivo inhibition of AChE in Elav-GAL4/UAS-Abeta42 hybrid Drosophila melanogaster assessed as reduction in intracephalic AChE levels at 0.1 to 10 uM by HPLC analysis. Conditions: dose 0.1-10 µM. It is filed as functional.
The subject of data set [6] is Caenorhabditis elegans. Nature of the data set: Induction of autophagy in Caenorhabditis elegans BC12921 expressing SQST-1-GFP fusion protein assessed as decrease in fluorescence intensity at 1 uM by microplate reader analysis. The arrangement: scale not given: the % may be the effect or the level left. The format is functional.
For data set [7], the target named is Acetylcholinesterase (Electrophorus electricus) (UniProt O42275). Nature of the data set: Mixed type inhibition of electric eel AChE using acetylthiocholine chloride as substrate preincubated for 15 mins followed by substrate addition by reciprocal plot analysis.
Acetylcholinesterase (Electrophorus electricus), sequence (O42275 24-633 limits assumed): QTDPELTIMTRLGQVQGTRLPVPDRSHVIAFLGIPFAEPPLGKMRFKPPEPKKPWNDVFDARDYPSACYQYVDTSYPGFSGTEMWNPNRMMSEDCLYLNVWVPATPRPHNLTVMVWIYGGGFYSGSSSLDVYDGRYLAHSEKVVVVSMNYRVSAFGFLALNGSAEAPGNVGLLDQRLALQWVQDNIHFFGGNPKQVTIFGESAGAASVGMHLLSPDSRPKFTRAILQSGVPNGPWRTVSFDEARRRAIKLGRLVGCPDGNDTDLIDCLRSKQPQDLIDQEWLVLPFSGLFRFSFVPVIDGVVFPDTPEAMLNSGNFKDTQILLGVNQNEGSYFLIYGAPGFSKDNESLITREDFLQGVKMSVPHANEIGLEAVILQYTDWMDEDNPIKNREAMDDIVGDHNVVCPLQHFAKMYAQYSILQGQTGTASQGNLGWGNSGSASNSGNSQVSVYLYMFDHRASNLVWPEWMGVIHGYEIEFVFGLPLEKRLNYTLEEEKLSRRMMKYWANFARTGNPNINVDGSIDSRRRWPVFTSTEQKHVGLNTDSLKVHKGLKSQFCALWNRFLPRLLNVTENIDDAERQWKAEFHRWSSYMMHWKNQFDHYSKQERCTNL
Data set [8] deals with SH-SY5Y. Briefly: (§1) Inhibition of amyloid beta42 secretion in human SH-SY5Y cells overexpressing human APP Swedish mutant at 1 uM incubated for 24 hrs by ELISA. It is filed as functional.
A short description of data set [9]: as §1. The format is functional.

Acetylcholinesterase, sequence (O42275 whole entry, the tested form may be a part): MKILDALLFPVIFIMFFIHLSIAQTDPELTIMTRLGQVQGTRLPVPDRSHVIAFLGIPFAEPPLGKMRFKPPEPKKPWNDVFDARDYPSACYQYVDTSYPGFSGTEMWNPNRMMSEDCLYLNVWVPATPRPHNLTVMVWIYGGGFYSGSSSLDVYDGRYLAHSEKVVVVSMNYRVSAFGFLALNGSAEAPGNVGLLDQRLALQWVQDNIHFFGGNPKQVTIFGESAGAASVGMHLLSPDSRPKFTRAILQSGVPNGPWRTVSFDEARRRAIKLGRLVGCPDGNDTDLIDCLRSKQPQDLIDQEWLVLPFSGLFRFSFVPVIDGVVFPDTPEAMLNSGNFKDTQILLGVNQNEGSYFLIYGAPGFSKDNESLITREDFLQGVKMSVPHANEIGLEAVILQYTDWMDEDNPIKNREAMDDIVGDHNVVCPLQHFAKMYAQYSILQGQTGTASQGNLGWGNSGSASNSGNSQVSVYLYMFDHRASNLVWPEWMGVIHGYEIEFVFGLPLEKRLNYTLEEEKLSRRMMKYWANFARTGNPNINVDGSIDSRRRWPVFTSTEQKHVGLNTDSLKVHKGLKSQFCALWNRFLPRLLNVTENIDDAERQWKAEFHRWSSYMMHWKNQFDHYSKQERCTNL

As usually defined, the IC50 is the concentration at which inhibition is half-maximal. The inhibition is the percentage by which the read-out fell short of the control. Broadly, the Papp is the rate of passage across a membrane or cell layer, normalised by area and donor concentration. `O=C(CCCCN1CCCCC1)Nc1cccc2c1C(=O)c1cccc3ccnc-2c13`: in data set [1], half-maximal inhibition (IC50) was put at 978 nM. The inhibition result in data set [2] was “Dose-dependent effect”; in data set [4] it was 52.5%. Also, in data set [3], the Papp at 10 h, 25 ug/ml was 6.59 ×10⁻⁶ cm/s.
`O=C(CCCN1CCCCC1)Nc1c(Cl)ccc2c1-c1nccc3cccc(c13)C2=O` yielded an IC50 in data set [1] of 148 nM. For the same molecule, the inhibition result in [2] is “Dose-dependent effect”; in data set [4], 78.4%. The same molecule gave a Papp at 10 h, 25 ug/ml in data set [3] of 2.44 ×10⁻⁶ cm/s. Moreover, in [5], the inhibition result was “Active”.
Regarding `COc1cc(/C=C/C(=O)CC(=O)/C=C/c2ccc(O)c(OC)c2)ccc1O`, the inhibition in data set [4] was determined as 45.1%.
For the molecule `O=C(CCN1CCCCC1)Nc1cccc2c1C(=O)c1cccc3ccnc-2c13`, in data set [1], the IC50 amounted to 80.8 nM. Further, in data set [6], the Activity was found to be 28%. For the same molecule, the inhibition entry in [7], in data set [8] and in [5] was “Active” in each case. Moreover, the inhibition result in data set [2] was “Dose-dependent effect”; in [4], 76.1%. In data set [3], the Papp at 10 h, 25 ug/ml came to 2.54 ×10⁻⁶ cm/s.
Molecule `O=C(CCCCCN1CCCCC1)Nc1c(Cl)ccc2c1-c1nccc3cccc(c13)C2=O` came in with an IC50 in data set [1] of 380 nM. In addition, the inhibition result in [2] was “Dose-dependent effect”; in data set [4] it was 67.7%. In data set [3], this molecule gave a Papp at 10 h, 25 ug/ml of 2.72 ×10⁻⁶ cm/s.
In data set [1], `O=C(CN1CCCCC1)Nc1cccc2c1C(=O)c1cccc3ccnc-2c13` came in with an IC50 of 156 nM. The inhibition result is “Dose-dependent effect” in data set [2] and 57.6% in [4]. Further, the apparent permeability (Papp) at 10 h, 25 ug/ml in data set [3] is 1.63 ×10⁻⁶ cm/s.
In turn, `O=C(CCCCCN1CCCCC1)Nc1cccc2c1C(=O)c1cccc3ccnc-2c13` registered an IC50 in data set [1] of 472 nM. Further, the inhibition entry in data set [2] is “Dose-dependent effect”; in data set [4], 55.7%. The Papp at 10 h, 25 ug/ml in [3] came to 4.92 ×10⁻⁶ cm/s.
As to `O=C(CN1CCCCC1)Nc1c(Cl)ccc2c1-c1nccc3cccc(c13)C2=O`, half-maximal inhibition in data set [1] (IC50) required 32.1 nM. Also, the inhibition result is “Dose-dependent effect” in data set [2] and 51.3% in data set [4]. This molecule yielded a Papp at 10 h, 25 ug/ml in data set [3] of 1.36 ×10⁻⁶ cm/s. Besides, the inhibition entry in data set [8] is “Active”.
Consider `O=C(CCCN1CCCCC1)Nc1cccc2c1C(=O)c1cccc3ccnc-2c13`, for which half-maximal inhibition in data set [1] (IC50) was put at 187 nM. For the same molecule, the inhibition result in data set [2] is “Dose-dependent effect”; in data set [4] it was 61.3%. Besides, the Papp at 10 h, 25 ug/ml in data set [3] came to 1.52 ×10⁻⁶ cm/s. Further, the inhibition entry in data set [8] was “Active”.
Molecule `O=C(CCCCN1CCCCC1)Nc1c(Cl)ccc2c1-c1nccc3cccc(c13)C2=O` had an IC50 in data set [1] of 1800 nM. Also, the results for the inhibition entry in [2] and in [4] were “Dose-dependent effect” and 71.2%, respectively. The Papp at 10 h, 25 ug/ml in data set [3] amounted to 1.74 ×10⁻⁶ cm/s.
In data set [1], `O=C(CCN1CCCCC1)Nc1c(Cl)ccc2c1-c1nccc3cccc(c13)C2=O` yielded an IC50 of 28.4 nM. Further, the Activity in data set [6] is reported as 26.5%. Moreover, the inhibition entry in [7], in data set [8] and in data set [5] was “Active” each time. For the same molecule, the inhibition entry is “Dose-dependent effect” in data set [2] and 74.6% in [4]. In data set [3], the Papp at 10 h, 25 ug/ml worked out at 8.24 ×10⁻⁶ cm/s. Besides, the inhibition at 1 µM in [9] was determined as 46%.
